Assay results: ChEMBL document CHEMBL1921774, “Evaluation of 18F-labeled benzodioxine piperazine-based dopamine D4 receptor ligands: lipophilicity as a determinate of nonspecific binding” (J Med Chem, 2011); call rule not given here

Legend:
Heart [1] = experiment: Biodistribution in NMRI mouse heart at 1.1 to 2.6 MBq, iv after 5 mins by gamma counting; type: ADME, organism-based; details: in vivo
Brain [2] = experiment: Biodistribution in NMRI mouse brain at 1.1 to 2.6 MBq, iv after 5 mins by gamma counting; type: ADME, organism-based; details: in vivo
Lung [3] = experiment: Biodistribution in NMRI mouse lung at 1.1 to 2.6 MBq, iv after 5 mins by gamma counting; type: ADME, organism-based; details: in vivo
Liver [4] = experiment: Biodistribution in NMRI mouse liver at 1.1 to 2.6 MBq, iv after 5 mins by gamma counting; type: ADME, organism-based; details: in vivo
Kidney [5] = experiment: Biodistribution in NMRI mouse kidney at 1.1 to 2.6 MBq, iv after 5 mins by gamma counting; type: ADME, organism-based; details: in vivo
Spleen [6] = experiment: Biodistribution in NMRI mouse spleen at 1.1 to 2.6 MBq, iv after 5 mins by gamma counting; type: ADME, organism-based; details: in vivo
Intestine [7] = experiment: Biodistribution in NMRI mouse intestine at 1.1 to 2.6 MBq, iv after 5 mins by gamma counting; type: ADME, organism-based; details: in vivo
Pancreas [8] = experiment: Biodistribution in NMRI mouse pancreas at 1.1 to 2.6 MBq, iv after 5 mins by gamma counting; type: ADME, organism-based; details: in vivo
Bone [9] = experiment: Biodistribution in NMRI mouse bone at 1.1 to 2.6 MBq, iv after 5 mins by gamma counting; type: ADME, organism-based, Bone element; details: in vivo
Blood [10] = experiment: Biodistribution in NMRI mouse blood at 1.1 to 2.6 MBq, iv after 5 mins by gamma counting; type: ADME, organism-based; details: in vivo
Heart [11] = experiment: Biodistribution in NMRI mouse heart at 1.1 to 2.6 MBq, iv after 10 mins by gamma counting; type: ADME, organism-based; details: in vivo
Brain [12] = experiment: Biodistribution in NMRI mouse brain at 1.1 to 2.6 MBq, iv after 10 mins by gamma counting; type: ADME, organism-based; details: in vivo
Lung [13] = experiment: Biodistribution in NMRI mouse lung at 1.1 to 2.6 MBq, iv after 10 mins by gamma counting; type: ADME, organism-based; details: in vivo
Liver [14] = experiment: Biodistribution in NMRI mouse liver at 1.1 to 2.6 MBq, iv after 10 mins by gamma counting; type: ADME, organism-based; details: in vivo
Kidney [15] = experiment: Biodistribution in NMRI mouse kidney at 1.1 to 2.6 MBq, iv after 10 mins by gamma counting; type: ADME, organism-based; details: in vivo
Spleen [16] = experiment: Biodistribution in NMRI mouse spleen at 1.1 to 2.6 MBq, iv after 10 mins by gamma counting; type: ADME, organism-based; details: in vivo
Intestine [17] = experiment: Biodistribution in NMRI mouse intestine at 1.1 to 2.6 MBq, iv after 10 mins by gamma counting; type: ADME, organism-based; details: in vivo
Pancreas [18] = experiment: Biodistribution in NMRI mouse pancreas at 1.1 to 2.6 MBq, iv after 10 mins by gamma counting; type: ADME, organism-based; details: in vivo
Bone [19] = experiment: Biodistribution in NMRI mouse bone at 1.1 to 2.6 MBq, iv after 10 mins by gamma counting; type: ADME, organism-based, Bone element; details: in vivo
Blood [20] = experiment: Biodistribution in NMRI mouse blood at 1.1 to 2.6 MBq, iv after 10 mins by gamma counting; type: ADME, organism-based; details: in vivo
Heart [21] = experiment: Biodistribution in NMRI mouse heart at 1.1 to 2.6 MBq, iv after 15 mins by gamma counting; type: ADME, organism-based; details: in vivo, 0.25 h
Brain [22] = experiment: Biodistribution in NMRI mouse brain at 1.1 to 2.6 MBq, iv after 15 mins by gamma counting; type: ADME, organism-based; details: in vivo, 0.25 h
Lung [23] = experiment: Biodistribution in NMRI mouse lung at 1.1 to 2.6 MBq, iv after 15 mins by gamma counting; type: ADME, organism-based; details: in vivo, 0.25 h
Liver [24] = experiment: Biodistribution in NMRI mouse liver at 1.1 to 2.6 MBq, iv after 15 mins by gamma counting; type: ADME, organism-based; details: in vivo, 0.25 h
Kidney [25] = experiment: Biodistribution in NMRI mouse kidney at 1.1 to 2.6 MBq, iv after 15 mins by gamma counting; type: ADME, organism-based; details: in vivo, 0.25 h
Spleen [26] = experiment: Biodistribution in NMRI mouse spleen at 1.1 to 2.6 MBq, iv after 15 mins by gamma counting; type: ADME, organism-based; details: in vivo, 0.25 h
Intestine [27] = experiment: Biodistribution in NMRI mouse intestine at 1.1 to 2.6 MBq, iv after 15 mins by gamma counting; type: ADME, organism-based; details: in vivo, 0.25 h
Pancreas [28] = experiment: Biodistribution in NMRI mouse pancreas at 1.1 to 2.6 MBq, iv after 15 mins by gamma counting; type: ADME, organism-based; details: in vivo, 0.25 h
Bone [29] = experiment: Biodistribution in NMRI mouse bone at 1.1 to 2.6 MBq, iv after 15 mins by gamma counting; type: ADME, organism-based, Bone element; details: in vivo, 0.25 h
Blood [30] = experiment: Biodistribution in NMRI mouse blood at 1.1 to 2.6 MBq, iv after 15 mins by gamma counting; type: ADME, organism-based; details: in vivo, 0.25 h
Heart [31] = experiment: Biodistribution in NMRI mouse heart at 1.1 to 2.6 MBq, iv after 30 mins by gamma counting; type: ADME, organism-based; details: in vivo, 0.5 h
Brain [32] = experiment: Biodistribution in NMRI mouse brain at 1.1 to 2.6 MBq, iv after 30 mins by gamma counting; type: ADME, organism-based; details: in vivo, 0.5 h
Lung [33] = experiment: Biodistribution in NMRI mouse lung at 1.1 to 2.6 MBq, iv after 30 mins by gamma counting; type: ADME, organism-based; details: in vivo, 0.5 h
Liver [34] = experiment: Biodistribution in NMRI mouse liver at 1.1 to 2.6 MBq, iv after 30 mins by gamma counting; type: ADME, organism-based; details: in vivo, 0.5 h
Kidney [35] = experiment: Biodistribution in NMRI mouse kidney at 1.1 to 2.6 MBq, iv after 30 mins by gamma counting; type: ADME, organism-based; details: in vivo, 0.5 h
Spleen [36] = experiment: Biodistribution in NMRI mouse spleen at 1.1 to 2.6 MBq, iv after 30 mins by gamma counting; type: ADME, organism-based; details: in vivo, 0.5 h
Intestine [37] = experiment: Biodistribution in NMRI mouse intestine at 1.1 to 2.6 MBq, iv after 30 mins by gamma counting; type: ADME, organism-based; details: in vivo, 0.5 h
Pancreas [38] = experiment: Biodistribution in NMRI mouse pancreas at 1.1 to 2.6 MBq, iv after 30 mins by gamma counting; type: ADME, organism-based; details: in vivo, 0.5 h
Bone [39] = experiment: Biodistribution in NMRI mouse bone at 1.1 to 2.6 MBq, iv after 30 mins by gamma counting; type: ADME, organism-based, Bone element; details: in vivo, 0.5 h
Blood [40] = experiment: Biodistribution in NMRI mouse blood at 1.1 to 2.6 MBq, iv after 30 mins by gamma counting; type: ADME, organism-based; details: in vivo, 0.5 h
Serum = experiment: Metabolic stability in NMRI mouse serum assessed as remaining radioactivity at 1.1 to 2.6 MBq, iv by TLC analysis; type: ADME, organism-based; details: in vivo
Brain [41] = experiment: Drug metabolism in NMRI mouse brain at […], iv measured 10 mins post injection; type: ADME, organism-based; details: in vivo
[42] = Chemical stability of the compound on silica gel on TLC plate assessed as half life; type: physicochemical
[43] = Chemical stability of the compound on […] oxide gel on TLC plate assessed as half life; type: physicochemical

For [18F]c1ccc(CN2CCN(c3ccc4c(c3)OCCO4)CC2)cn1, which Drug uptake (Heart [1]) is on record?
Its Drug uptake is 1.8 % ID/g.

What about the Drug uptake (Brain [2]) of the same compound?
Its Drug uptake is 4.93 % ID/g.

And the Drug uptake (Lung [3])?
Its Drug uptake is 12.99 % ID/g.

What about the Drug uptake (Liver [4]) of the same compound?
Its Drug uptake is 4.13 % ID/g.

What about the Drug uptake (Kidney [5]) of the same compound?
The Drug uptake was 8.23 % ID/g.

And the Drug uptake (Spleen [6])?
The Drug uptake was 4.42 % ID/g.

And the Drug uptake (Intestine [7])?
Its Drug uptake is 2.16 % ID/g.

What about the Drug uptake (Pancreas [8]) of the same compound?
Its Drug uptake is 8.36 % ID/g.

What about the Drug uptake (Bone [9]) of the same compound?
The Drug uptake was 2.03 % ID/g.

What about the Drug uptake (Blood [10]) of the same compound?
Its Drug uptake is 1.62 % ID/g.

What about the Drug uptake (Heart [11]) of the same compound?
Its Drug uptake is 0.52 % ID/g.

And the Drug uptake (Brain [12])?
The Drug uptake was 2.85 % ID/g.

What about the Drug uptake (Lung [13]) of the same compound?
The Drug uptake was 4.84 % ID/g.

And the Drug uptake (Liver [14])?
Its Drug uptake is 6.78 % ID/g.

What about the Drug uptake (Kidney [15]) of the same compound?
Its Drug uptake is 5.86 % ID/g.

And the Drug uptake (Spleen [16])?
Its Drug uptake is 3.6 % ID/g.

And the Drug uptake (Intestine [17])?
The Drug uptake was 2.68 % ID/g.

What about the Drug uptake (Pancreas [18]) of the same compound?
The Drug uptake was 11.1 % ID/g.

What about the Drug uptake (Bone [19]) of the same compound?
The Drug uptake was 2.54 % ID/g.

And the Drug uptake (Blood [20])?
Its Drug uptake is 1.29 % ID/g.

What about the Drug uptake (Heart [21]) of the same compound?
The Drug uptake was 0.58 % ID/g.

And the Drug uptake (Brain [22])?
The Drug uptake was 2.27 % ID/g.

And the Drug uptake (Lung [23])?
Its Drug uptake is 4.79 % ID/g.

And the Drug uptake (Liver [24])?
Its Drug uptake is 5.67 % ID/g.

And the Drug uptake (Kidney [25])?
Its Drug uptake is 4.67 % ID/g.

And the Drug uptake (Spleen [26])?
Its Drug uptake is 3.19 % ID/g.

What about the Drug uptake (Intestine [27]) of the same compound?
Its Drug uptake is 2.51 % ID/g.

What about the Drug uptake (Pancreas [28]) of the same compound?
The Drug uptake was 6.88 % ID/g.

What about the Drug uptake (Bone [29]) of the same compound?
Its Drug uptake is 2.7 % ID/g.

What about the Drug uptake (Blood [30]) of the same compound?
Its Drug uptake is 1.23 % ID/g.

And the Drug uptake (Heart [31])?
The Drug uptake was 1.13 % ID/g.

And the Drug uptake (Brain [32])?
Its Drug uptake is 1.47 % ID/g.

What about the Drug uptake (Lung [33]) of the same compound?
Its Drug uptake is 2.68 % ID/g.

And the Drug uptake (Liver [34])?
Its Drug uptake is 7.79 % ID/g.

What about the Drug uptake (Kidney [35]) of the same compound?
The Drug uptake was 6.03 % ID/g.

And the Drug uptake (Spleen [36])?
The Drug uptake was 3.13 % ID/g.

What about the Drug uptake (Intestine [37]) of the same compound?
The Drug uptake was 4.47 % ID/g.

And the Drug uptake (Pancreas [38])?
The Drug uptake was 7.43 % ID/g.

What about the Drug uptake (Bone [39]) of the same compound?
The Drug uptake was 0.93 % ID/g.

What about the Drug uptake (Blood [40]) of the same compound?
The Drug uptake was 0.53 % ID/g.

And the Stability (Serum)?
Its Stability is greater than 98%.

And the Drug metabolism (Brain [41])?
Its Drug metabolism is “Active”.

What about the half-life [42] of the same compound?
The half-life was 15 min.

What about the half-life [43] of the same compound?
Its half-life is 50 min.
